Data on 13 compounds can be found in patent publication US20230348447A1, “OXAZOLIDINONE COMPOUNDS, LIPOSOME COMPOSITIONS COMPRISING OXAZOLIDINONE COMPOUNDS AND METHOD OF USE THEREOF” (priority 2020, published 2023).

≈ marks a conversion by molar mass, not a printed value.

For test [1], the system named is M. tuberculosis MDR strain M28. Nature of the test: microbe, parasite or virus in culture. Type of test: cell-based, Mycobacterium tuberculosis. The conditions noted are these: for MIC: Mycobacterium tuberculosis, read-out: MIC, µg/mL in M.tuberculosis strain M28; for MIC, µg/mL in M.tuberculosis strain M28: MABA assay. For orientation: Resazurin is reduced to fluorescent resorufin, in cell work by metabolically active cells.

In test [2] the test system is M. tuberculosis MDR strain M70. Nature of the test: microbe, parasite or virus in culture. The following applies: for MIC: Mycobacterium tuberculosis, read-out: MIC, µg/mL in M.tuberculosis strain M70; for MIC, µg/mL in M.tuberculosis strain M70: MABA assay. Type of test: cell-based, Mycobacterium tuberculosis.
The test system of test [3] is M. tuberculosis MDR strain TN5904. Put plainly: microbe, parasite or virus in culture. Type of test: cell-based, Mycobacterium tuberculosis. The conditions noted are these: for MIC: Mycobacterium tuberculosis, read-out: MIC, µg/mL in M.tuberculosis strain TN5904; for MIC, µg/mL in M.tuberculosis strain TN5904: MABA assay.
Test [4] deals with M. tuberculosis MDR strain M14. Nature of the test: microbe, parasite or virus in culture. The following applies: for MIC: Mycobacterium tuberculosis, read-out: MIC, µg/mL in M.tuberculosis strain M14; for MIC, µg/mL in M.tuberculosis strain M14: MABA assay. Type of test: cell-based, Mycobacterium tuberculosis.
For test [5], the system named is M. tuberculosis MDR strain M94. Nature of the test: microbe, parasite or virus in culture. Type of test: cell-based, Mycobacterium tuberculosis. The conditions noted are these: for MIC: Mycobacterium tuberculosis, read-out: MIC, µg/mL in M.tuberculosis strain M94; for MIC, µg/mL in M.tuberculosis strain M94: MABA assay.
Test [6] relates to M. tuberculosis H37Rv. Put plainly: microbe, parasite or virus in culture. Type of test: cell-based, Mycobacterium tuberculosis. The following applies: for MIC: Mycobacterium tuberculosis, H37RV, read-out: MIC, µg/mL in M.tuberculosis strain H37Rv; for MIC, µg/mL in M.tuberculosis strain H37Rv: MABA assay, drug-susceptible strain H37Rv.
Test [7] has as its system M. tuberculosis MDR strain M14. Set-up: key: R- resistant; S -susceptible. The conditions noted are these: cited from earlier work.
The subject of test [8] is M. tuberculosis MDR strain M70. Also noted: key: R- resistant; S -susceptible. The conditions noted are these: cited from earlier work.
Test [9] concerns M. tuberculosis MDR strain M94. Set-up: key: R- resistant; S -susceptible. The following applies: cited from earlier work.
Test [10] concerns M. tuberculosis MDR strain TN5904. Set-up: key: R- resistant; S -susceptible. The following applies: cited from earlier work.
The subject of test [11] is M. tuberculosis MDR strain M28. Also noted: key: R- resistant; S -susceptible. The conditions noted are these: cited from earlier work.

Take `CC(=O)NC[C@H]1CN(c2ccc(-c3ccc(-c4nnn(CCN(C)C)n4)nc3)c(F)c2)C(=O)O1` [AKG-38]: the MIC in test [1] is 0.03 µg/mL (≈ 0.064 µM); in test [2] it was no more than 0.015 µg/mL; in test [3], 0.03 µg/mL (≈ 0.064 µM); in [4] it was 0.03 µg/mL (≈ 0.064 µM); in [5], 0.03 µg/mL (≈ 0.064 µM); in [6], 0.03 µg/mL (≈ 0.064 µM).

Take `CN(C)CCn1nnc(-c2ccc(-c3ccc(N4C[C@H](CN)OC4=O)cc3F)cn2)n1.Cl` [AKG-28]: the MIC in test [1] is 0.015 µg/mL; in test [2], no more than 0.004 µg/mL; in test [3] it was 0.015 µg/mL; in [4], 0.015 µg/mL; in [5] it was 0.015 µg/mL; in test [6], 0.03 µg/mL.

With `NNC(=O)c1ccncc1` [INH], in test [1], the “MIC, µg/mL in M.tuberculosis strain M28” value is recorded as greater than 2 µg/mL. In addition, the “Drug resistance feature of the strain” value in [7], in test [8], in test [9], in [10] and in test [11] was “R” each time. Moreover, in [2], the “MIC, µg/mL in M.tuberculosis strain M70” value was greater than 2 µg/mL. In addition, the “MIC, µg/mL in M.tuberculosis strain TN5904” value in test [3] is given as 2 µg/mL (≈ 14.6 µM). Further, the “MIC, µg/mL in M.tuberculosis strain M14” value in test [4] is listed as greater than 2 µg/mL. Also, the “MIC, µg/mL in M.tuberculosis strain M94” value in test [5] is greater than 2 µg/mL. In [6], the “MIC, µg/mL in M.tuberculosis strain H37Rv” value was found to be 0.06 µg/mL (≈ 0.438 µM).

For `COc1c(N2C[C@@H]3CCCN[C@@H]3C2)c(F)cc2c(=O)c(C(=O)O)cn(C3CC3)c12` [MOX], the MIC in test [1] worked out at 2 µg/mL (≈ 4.98 µM); in test [2], 1 µg/mL (≈ 2.49 µM); in test [3] it was 0.125 µg/mL (≈ 0.311 µM); in test [4], 0.125 µg/mL (≈ 0.311 µM); in test [5], 0.125 µg/mL (≈ 0.311 µM); in [6], 0.125 µg/mL (≈ 0.311 µM).

Regarding `Cl.Cn1nnc(-c2ccc(-c3ccc(N4C[C@H](CN)OC4=O)cc3F)cn2)n1` [AKG-3], the MIC in [1] is 0.06 µg/mL; in test [2], no more than 0.015 µg/mL; in test [3] it was 0.06 µg/mL; in test [4], 0.03 µg/mL; in test [5], 0.06 µg/mL; in test [6], 0.125 µg/mL.

As for `Cl.Cl.NCCn1nnc(-c2ccc(-c3ccc(N4C[C@H](CN)OC4=O)cc3F)cn2)n1` [AKG-29], the MIC in test [1] is 0.125 µg/mL; in [2] it was no more than 0.03 µg/mL; in test [3], 0.06 µg/mL; in test [4], 0.06 µg/mL; in test [5] it was 0.125 µg/mL; in [6], 0.25 µg/mL.

For `CN[C@@H]1[C@H](O[C@H]2[C@H](O[C@H]3[C@H](O)[C@@H](O)[C@H](N=C(N)N)[C@@H](O)[C@@H]3N=C(N)N)O[C@@H](C)[C@]2(O)C=O)O[C@@H](CO)[C@H](O)[C@H]1O` [STR], the “MIC, µg/mL in M.tuberculosis strain M28” value in [1] is given as 0.125 µg/mL (≈ 0.215 µM). For the same compound, the “Drug resistance feature of the strain” value in [7] was “R”; in [8], “R”; in test [9], “R”; in [10], “R”; in [11] it was “S”. Further, the “MIC, µg/mL in M.tuberculosis strain M70” value in test [2] is on record as 2 µg/mL (≈ 3.44 µM). In test [3], the “MIC, µg/mL in M.tuberculosis strain TN5904” value amounted to 1 µg/mL (≈ 1.72 µM). In [4], the “MIC, µg/mL in M.tuberculosis strain M14” value is on record as greater than 8 µg/mL. In addition, the “MIC, µg/mL in M.tuberculosis strain M94” value in [5] is given as greater than 8 µg/mL. Further, the “MIC, µg/mL in M.tuberculosis strain H37Rv” value in test [6] was found to be 0.5 µg/mL (≈ 0.86 µM).

With `CC(=O)NC[C@H]1CN(c2ccc(N3CCOCC3)c(F)c2)C(=O)O1` [Linezolid], the MIC in [1] stood at 0.5 µg/mL (≈ 1.48 µM); in test [2] it was 0.5 µg/mL (≈ 1.48 µM); in test [3] it was 1 µg/mL (≈ 2.96 µM); in test [4], 0.5 µg/mL (≈ 1.48 µM); in test [5] it was 0.5 µg/mL (≈ 1.48 µM); in [6] it was 2 µg/mL (≈ 5.93 µM).

On to `CN(C)CCn1nnc(-c2ccc(-c3ccc(N4C[C@H](CO)OC4=O)cc3F)cn2)n1` [AKG-16], for which the MIC was found to be 0.25 µg/mL (≈ 0.585 µM) in test [1]; 0.125 µg/mL (≈ 0.292 µM) in test [2]; 0.06 µg/mL (≈ 0.14 µM) in test [3]; 0.06 µg/mL (≈ 0.14 µM) in test [4]; 0.06 µg/mL (≈ 0.14 µM) in test [5].

For `CC[C@@H](CO)NCCN[C@@H](CC)CO` [EMB], the “Drug resistance feature of the strain” value in [7] is listed as “S”; in [8], “S”; in test [9] it was “S”; in [10], “S”; in test [11] it was “R”.

Turning to `NC(=O)c1cnccn1` [PZA], the “Drug resistance feature of the strain” value in [7] is “R”; in [8], “R”; in test [9] it was “S”; in [10] it was “R”; in test [11], “R”.

As to `CO[C@H]1/C=C/O[C@@]2(C)Oc3c(C)c(O)c4c(O)c(c(/C=N/N5CCN(C)CC5)c(O)c4c3C2=O)NC(=O)/C(C)=C\C=C\[C@H](C)[C@H](O)[C@@H](C)[C@@H](O)[C@@H](C)[C@H](OC(C)=O)[C@@H]1C` [RIF], in [1], the “MIC, µg/mL in M.tuberculosis strain M28” value is given as greater than 8 µg/mL. In addition, the “Drug resistance feature of the strain” value is “S” in test [7]; “R” in test [8]; “S” in [9]; “R” in [10]; “R” in test [11]. The “MIC, µg/mL in M.tuberculosis strain M70” value in test [2] is recorded as greater than 8 µg/mL. The “MIC, µg/mL in M.tuberculosis strain TN5904” value in test [3] is greater than 8 µg/mL. Also, in test [4], the “MIC, µg/mL in M.tuberculosis strain M14” value is listed as 0.06 µg/mL (≈ 0.0729 µM). Further, the “MIC, µg/mL in M.tuberculosis strain H37Rv” value in test [6] is 0.06 µg/mL (≈ 0.0729 µM).

Consider `CCN(CC)CCn1nnc(-c2ccc(-c3ccc(N4C[C@H](CNC(C)=O)OC4=O)cc3F)cn2)n1` [AKG-39], for which the MIC in [1] amounted to 0.5 µg/mL (≈ 1.01 µM); in test [2] it was 0.125 µg/mL (≈ 0.252 µM); in test [3], 0.25 µg/mL (≈ 0.503 µM); in test [4], 0.5 µg/mL (≈ 1.01 µM); in test [5], 1 µg/mL (≈ 2.01 µM).
